Laboratory results taken from patent publication US20090124663A1, “Novel n-phenyl-piperidine derivatives and their use as monoamine neurotransmitter re-uptake inhibitors” (NeuroSearch A/S, priority 2005, published 2009).
Where a name gives a salt, the structure may show the parent alone.

Legend:
[1] = target: T1, reuptake of dopamine (DA) in synaptosomes (Rattus norvegicus, UniProt P23977); assay: Inhibition of dopamine reuptake in synaptosomes; type: biochemical
T1 construct: in synaptosomes as described in WO 97/16451; from tissue
T1 sequence (P23977 whole entry): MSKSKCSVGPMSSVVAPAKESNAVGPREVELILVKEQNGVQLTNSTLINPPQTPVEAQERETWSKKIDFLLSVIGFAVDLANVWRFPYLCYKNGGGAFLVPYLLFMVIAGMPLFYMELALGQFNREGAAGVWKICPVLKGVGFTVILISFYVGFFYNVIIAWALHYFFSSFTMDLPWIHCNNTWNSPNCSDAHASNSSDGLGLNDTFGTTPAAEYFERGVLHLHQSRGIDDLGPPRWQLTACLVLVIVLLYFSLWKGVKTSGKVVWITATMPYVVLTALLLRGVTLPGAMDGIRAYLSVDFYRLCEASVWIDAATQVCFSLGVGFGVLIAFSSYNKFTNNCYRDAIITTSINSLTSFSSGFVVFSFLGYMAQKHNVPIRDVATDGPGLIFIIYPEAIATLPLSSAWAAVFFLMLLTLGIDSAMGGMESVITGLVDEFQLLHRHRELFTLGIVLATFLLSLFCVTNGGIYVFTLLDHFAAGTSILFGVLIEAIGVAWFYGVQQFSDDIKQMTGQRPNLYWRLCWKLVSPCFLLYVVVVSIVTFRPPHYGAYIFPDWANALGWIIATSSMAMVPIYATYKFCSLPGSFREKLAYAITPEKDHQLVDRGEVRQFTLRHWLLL
Procedure: (§1) Compounds were tested for their ability to inhibit the reuptake of the monoamine neurotransmitters dopamine (DA) noradrenaline (NA) and serotonine (5-HT) in synaptosomes as described in WO 97/16451.
(§2) The test values are given as IC50 (the concentration (μM) of the test substance which inhibits the specific binding of ^3H-DA, ^3H-NA, or ^3H-5-HT by 50%).

[2] = target: T2, reuptake of serotonine (5-HT) in synaptosomes (Rattus norvegicus, UniProt P31652); assay: Inhibition of serotonin reuptake in synaptosomes; type: biochemical
T2 construct: in synaptosomes as described in WO 97/16451; from tissue
T2 sequence (P31652 whole entry): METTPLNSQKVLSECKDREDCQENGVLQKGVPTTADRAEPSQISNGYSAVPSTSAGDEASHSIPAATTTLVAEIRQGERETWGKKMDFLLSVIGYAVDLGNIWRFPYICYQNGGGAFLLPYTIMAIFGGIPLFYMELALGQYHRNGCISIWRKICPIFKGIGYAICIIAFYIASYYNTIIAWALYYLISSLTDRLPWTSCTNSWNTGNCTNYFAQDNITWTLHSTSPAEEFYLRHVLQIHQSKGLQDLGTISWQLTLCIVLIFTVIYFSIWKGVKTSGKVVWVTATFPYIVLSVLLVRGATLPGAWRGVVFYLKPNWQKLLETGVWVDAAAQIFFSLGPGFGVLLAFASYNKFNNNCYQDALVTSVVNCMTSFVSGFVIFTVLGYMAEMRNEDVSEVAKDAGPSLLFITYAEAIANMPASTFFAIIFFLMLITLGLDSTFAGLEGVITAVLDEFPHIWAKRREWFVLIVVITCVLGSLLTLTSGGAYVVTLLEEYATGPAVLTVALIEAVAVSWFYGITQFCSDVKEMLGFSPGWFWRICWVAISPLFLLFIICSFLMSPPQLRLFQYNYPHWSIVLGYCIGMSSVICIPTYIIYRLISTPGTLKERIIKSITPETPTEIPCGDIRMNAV
Procedure: as §1, §2

[3] = target: T3, reuptake of noradrenaline (NA) in synaptosomes (Rattus norvegicus, UniProt Q9WTR4); assay: Inhibition of noradrenaline reuptake in synaptosomes; type: biochemical
T3 construct: in synaptosomes as described in WO 97/16451; from tissue
T3 sequence (Q9WTR4 1-597): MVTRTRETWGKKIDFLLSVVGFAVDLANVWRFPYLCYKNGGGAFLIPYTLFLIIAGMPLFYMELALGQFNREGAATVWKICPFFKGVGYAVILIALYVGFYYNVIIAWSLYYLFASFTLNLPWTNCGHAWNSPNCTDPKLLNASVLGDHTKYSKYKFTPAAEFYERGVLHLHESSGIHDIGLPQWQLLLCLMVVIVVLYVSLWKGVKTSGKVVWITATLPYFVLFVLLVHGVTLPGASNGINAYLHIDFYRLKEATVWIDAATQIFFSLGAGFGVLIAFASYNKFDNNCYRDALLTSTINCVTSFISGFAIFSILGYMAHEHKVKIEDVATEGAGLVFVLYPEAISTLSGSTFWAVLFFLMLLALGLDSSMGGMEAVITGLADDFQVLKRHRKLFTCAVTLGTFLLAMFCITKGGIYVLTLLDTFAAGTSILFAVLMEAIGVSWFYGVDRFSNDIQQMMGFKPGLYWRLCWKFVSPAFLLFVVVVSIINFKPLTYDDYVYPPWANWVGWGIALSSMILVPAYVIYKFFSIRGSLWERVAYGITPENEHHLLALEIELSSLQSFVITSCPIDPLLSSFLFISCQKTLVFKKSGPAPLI
Procedure: as §1, §2

SMILES | melting point | IC50 [1] | IC50 [2] | IC50 [3]
NC1CCN(c2ccc(Cl)c(Cl)c2)CC1 (as salt: hydrochloric acid salt) [1st compound of method A, 1-(3,4-Dichloro-phenyl)-piperidin-4-ylamine] | > 250 °C (dec.) | – | – | –
CNC1CCN(c2ccc(Cl)c(Cl)c2)CC1 (as salt: hydrochloric acid salt) [1st compound of method B, [1-(3,4-Dichloro-phenyl)-piperidin-4-yl]-methyl-amine] | 240 to 244 °C | – | – | –
NC1CCN(c2ccc(Cl)c(Cl)c2)CC1 [1st compound of method A, 1-(3,4-Dichloro-phenyl)-piperidin-4-ylamine] | – | 0.4 µM | 0.027 µM | 0.15 µM
CNC1CCN(c2ccc(Cl)c(Cl)c2)CC1 [1st compound of method B, [1-(3,4-Dichloro-phenyl)-piperidin-4-yl]-methyl-amine] | – | 0.38 µM | 0.027 µM | 0.2 µM
